Laboratory results as given in patent US6150350A, “Antimicrobial compositions” (Hoffman-la Roche Inc., priority 1997, dated 2000).
≈ marks a conversion by molar mass, not a printed value. Where a name gives a salt, the structure may show the parent alone.

Tests used:
[1] = tested on: 17 highly resistant MRSA strains; assay: In vitro activity: minimum inhibitory concentration (MIC) by the agar dilution method in Mueller Hinton agar, 17 highly resistant MRSA strains; type: cell-based, Methicillin resistant Staphylococcus aureus (MRSA); conditions: inoculum =10^5 CFU/spot
Experimental: In vitro activity was determined by minimum inhibitory concentration (MIC) by the agar dilution method in Mueller Hinton agar inoculum =10^5 CFU/spot.

β-lactamase = conditions: in words; cited from earlier work
[2] = tested on: Gram-positive and Gram negative pathogens; conditions: carbapenems alone; in words; cited from earlier work
MRSA = conditions: alone; in words; cited from earlier work

MIC50 ([1]; Table 1, substance alone) [µg/mL]	MIC90 ([1]; Table 1, substance alone) [µg/mL]	MIC50 ([1]; Table 2, substance alone) [µg/mL]	MIC90 ([1]; Table 2, substance alone) [µg/mL]	range of MIC ([1]; Table 1, substance alone) [µg/mL]	Structure (SMILES)	range of MIC ([1]; Table 2, substance alone) [µg/mL]	β-lactamase inhibition (β-lactamase)	spectrum of antibacterial activity [2]	activity against MRSA (MRSA)
> 64	> 64	–	–	> 64	CCN1CCN(C(=O)N[C@@H](C(=O)N[C@@H]2C(=O)N3C(C(=O)O)=C(CSc4nnnn4C)CS[C@H]23)c2ccc(O)cc2)C(=O)C1=O [Cefoperazone, reference compound]	–	–	–	–
> 64	> 64	–	–	> 64	Cc1cc(=O)c(C(=O)N[C@@H](C(=O)N[C@@H]2C(=O)N3C(C(=O)O)=C(CSc4nnnn4C)CS[C@H]23)c2ccc(O)cc2)c[nH]1 [Cefpiramid, reference compound]	–	–	–	–
> 64	> 64	–	–	> 64	CO/N=C(\C(=O)N[C@@H]1C(=O)N2C(C(=O)O)=C(CSc3nc(=O)c(=O)[nH]n3C)CS[C@H]12)c1csc(N)n1 [Ceftriaxone, reference compound]	–	–	–	–
> 16	> 16	> 16	> 16	–	O=C(C[n+]1ccc(CN2CC/C(=C\C3=C(C(=O)[O-])N4C(=O)[C@@H](NC(=O)CSc5ccncc5)[C@H]4SC3)C2=O)cc1)Nc1ccc(O)cc1 [Ex. 4, (E)-(6R,7R)-3-[1-[1-[(4-Hydroxy-phenylcarbamoyl)-methyl]-pyridin-1-ium-4-ylmethyl]-2-oxo-pyrrolidin-3-ylidenemethyl]-8-oxo-7-[2-(pyridin-4-yl-sulfanyl)-acetylamino]-5-thia-1-aza-bicyclo[4.2.0]oct-2-ene-2-carboxylate]	–	–	–	–
16 (≈ 24.4 µM)	> 16	16 (≈ 24.4 µM)	> 16	–	O=C(CSc1cc(Cl)c(Cl)cc1Cl)N[C@@H]1C(=O)N2C(C(=O)O)=C(/C=C3\CCN(Cc4cccc(O)c4)C3=O)CS[C@H]12 [Ex. 6, (E)-(6R,7R)-3-[1-(3-Hydroxy-benzyl)-2-oxo-pyrrolidin-3-ylidenemethyl]-8-oxo-7-[2-(2,4,5-trichloro-phenylsulfanyl)-acetylamino]-5-thia-1-aza-bicyclo[4.2.0]oct-2-ene-2-carboxylic acid]	–	–	–	–
16	> 16	16	> 16	–	O=C(CSc1ccc2ccccc2c1)N[C@@H]1C(=O)N2C(C(=O)O)=C(/C=C3\CCN(C4CC4)C3=O)CS[C@H]12.c1c[nH]cn1 [Ex. 12, (E)-(6R,7R)-3-(1-Cyclopropyl-2-oxo-pyrrolidin-3-ylidenemethyl)-7-[2-(naphthalen-2-ylsulfanyl)-acetylamino]-8-oxo-5-thia-1-aza-bicyclo[4.2.0]oct-2-ene-2-carboxylic acid imidazole salt (1:1)]	–	–	–	–
16 (≈ 26 µM)	> 16	–	–	–	NS(=O)(=O)c1ccc(CN2CC/C(=C\C3=C(C(=O)O)N4C(=O)[C@@H](NC(=O)CSc5ccccc5)[C@H]4SC3)C2=O)cc1 [Ex. 14]	–	–	–	–

More lines, now with the values behind:

Structure (SMILES)	MIC50 ([1]; Table 1, substance alone) [µg/mL]	MIC90 ([1]; Table 1, substance alone) [µg/mL]	MIC50 ([1]; Table 2, substance alone) [µg/mL]	MIC90 ([1]; Table 2, substance alone) [µg/mL]	range of MIC ([1]; Table 1, substance alone) [µg/mL]	range of MIC ([1]; Table 2, substance alone) [µg/mL]	β-lactamase inhibition (β-lactamase)	spectrum of antibacterial activity [2]	activity against MRSA (MRSA)
O=C(CSc1cc(Cl)c(Cl)cc1Cl)N[C@@H]1C(=O)N2C(C(=O)O)=C(/C=C3\CCN(C4CCNC4)C3=O)CS[C@H]12 (mixture of isomers) [Ex. 8, Mixture of (E)-(6R,7R)-8-oxo-3-[(R)- and-[(S)-2-oxo-[1,3']bipyrrolidinyl-3-ylidenemethyl]-8-oxo-7-[2-(2,4,5-trichloro-phenylsulfanyl)-acetylamino]-5-thia-1-aza-bicyclo[4.2.0]oct-2-ene-2-carboxylic acid hydrochloride]	> 16	> 16	> 16	> 16	–	–	–	–	–
CO/N=C(\C(=O)N[C@@H]1C(=O)N2C(C(=O)O)=C(COC(C)=O)CS[C@H]12)c1csc(N)n1 [Cefotaxime, reference compound]	> 64	> 64	–	–	> 64	–	–	–	–
CN(C)CCn1nnnc1SCC1=C(C(=O)O)N2C(=O)[C@@H](NC(=O)Cc3csc(N)n3)[C@H]2SC1 [Cefotiam, reference compound]	> 64	> 64	–	–	> 64	–	–	–	–
O=C(C[n+]1ccc(CN2CC/C(=C\C3=C(C(=O)[O-])N4C(=O)[C@@H](NC(=O)CSc5cc(Cl)c(Cl)cc5Cl)[C@H]4SC3)C2=O)cc1)Nc1ccc(O)cc1 [Ex. 1, (E)-(6R,7R)-3-[1-[1-[(4-Hydroxy-phenylcarbamoyl)-methyl]-pyridin-1-ium-4-ylmethyl]-2-oxo-pyrrolidin-3-ylidenemethyl]-8-oxo-7-[2-(2,4,5-trichloro-phenylsulfanyl)-acetylamino]-5-thia-1-aza-bicyclo[4.2.0]oct-2-ene-2-carboxylate]	> 16	> 16	> 16	> 16	–	–	–	–	–
O=C(C[n+]1ccc(CN2CC/C(=C\C3=C(C(=O)[O-])N4C(=O)[C@@H](NC(=O)CSc5nc6ccccc6s5)[C@H]4SC3)C2=O)cc1)Nc1ccc(O)cc1 [Ex. 2, (E)-(6R,7R)-3-[1-[1-[(4-Hydroxy-phenylcarbamoyl)-methyl]-pyridin-1-ium-4-ylmethyl]-2-oxo-pyrrolidin-3-ylidenemethyl]-8-oxo-7-[2-(1-benzothiazol-2-ylsulfanyl)-acetylamino]-5-thia-1-aza-bicyclo[4.2.0]oct-2-ene-2-carboxylate]	> 16	> 16	> 16	> 16	–	–	–	–	–
O=C(CSc1nc2ccccc2s1)N[C@@H]1C(=O)N2C(C(=O)O)=C(/C=C3\CCN(CC4CC4)C3=O)CS[C@H]12 [Ex. 3, (E)-(6R,7R)-7-[2-(Benzothiazol-2-ylsulfanyl)-acetylamino]-3-(1-cyclopropyl-methyl-2-oxo-pyrrolidin-3-ylidenemethyl)-8-oxo-5-thia-1-aza-bicyclo[4.2.0]-oct-2-ene-2-carboxylic acid]	16 (≈ 28.7 µM)	> 16	–	–	–	–	–	–	–
O=C(C[n+]1ccc(CN2CC/C(=C\C3=C(C(=O)[O-])N4C(=O)[C@@H](NC(=O)CSc5ccc6ccccc6c5)[C@H]4SC3)C2=O)cc1)Nc1ccc(O)c(F)c1 [Ex. 5, (E)-(6R,7R)-3-[1-[1-[(3-Fluoro-4-hydroxy-phenylcarbamoyl)-methyl]-pyridin-1-ium-4-ylmethyl]-2-oxo-pyrrolidin-3-ylidenemethyl]-7-[2-(naphthalen-2-ylsulfanyl)-acetylamino]-8-oxo-5-thia-1-aza-bicyclo[4.2.0]oct-2-ene-2-carboxylat]	> 16	> 16	> 16	> 16	–	–	–	–	–
O=C(CSc1ccc2ccccc2c1)N[C@@H]1C(=O)N2C(C(=O)O)=C(/C=C3\CCN(Cc4cccc(O)c4)C3=O)CS[C@H]12 [Ex. 7]	16 (≈ 26.6 µM)	16 (≈ 26.6 µM)	16 (≈ 26.6 µM)	16 (≈ 26.6 µM)	2 to 16	2 to 16	–	–	–
O=C(C[n+]1ccc(CN2CC/C(=C\C3=C(C(=O)[O-])N4C(=O)[C@@H](NC(=O)CSc5ccccc5)[C@H]4SC3)C2=O)cc1)Nc1ccc(O)c(F)c1 [Ex. 9, (E)-(6R,7R)-3-[1-[1-[(3-Fluoro-4-hydroxy-phenylcarbamoyl)-methyl]-pyridin-1-ium-4-ylmethyl]-2-oxo-pyrrolidin-3-ylidenemethyl]-8-oxo-7-(2-phenylsulfanyl-acetylamino)-5-thia-1-aza-bicyclo[4.2.0]oct-2-ene-2-carboxylate]	16 (≈ 22.7 µM)	16 (≈ 22.7 µM)	16 (≈ 22.7 µM)	16 (≈ 22.7 µM)	–	–	–	–	–
O=C(C[n+]1ccc(CN2CC/C(=C\C3=C(C(=O)[O-])N4C(=O)[C@@H](NC(=O)CSc5cc(Cl)ccc5Cl)[C@H]4SC3)C2=O)cc1)Nc1ccc(O)c(F)c1 [Ex. 10]	> 16	> 16	> 16	> 16	–	–	–	–	–
Cl.O=C(CSc1ccccc1)N[C@@H]1C(=O)N2C(C(=O)O)=C(/C=C3\CCN([C@@H]4CCNC4)C3=O)CS[C@H]12 [Ex. 11, (E)-(6R,7R)-8-Oxo-3-[(R)-2-oxo-[1,3']bipyrrolidinyl-3-ylidenemethyl]-7-(2-phenylsulfanyl-acetylamino)-5-thia-1-aza-bicyclo[4.2.0]oct-2-ene-2-carboxylic acid hydrochloride (1:1)]	16	> 16	16	> 16	–	–	–	–	–
O=C(CSc1ccc2ccccc2c1)N[C@@H]1C(=O)N2C(C(=O)[O-])=C(/C=C3\CCN(c4ccc(O)cc4)C3=O)CS[C@H]12.[Na+] [Ex. 13, (E)-(6R,7R)-3-[1-(4-Hydroxy-phenyl)-2-oxo-pyrrolidin-3-ylidenemethyl]-7-[2-(naphthalene-2-ylsulfanyl)-acetylamino]-8-oxo-5-thia-1-aza-bicyclo[4.2.0]oct-2-ene-2-carboxylic acid sodium salt (1:1)]	16	> 16	–	–	–	–	–	–	–
C[C@@H](O)[C@H]1C(=O)N2C(C(=O)O)=C(SCCN=CN)C[C@H]12 [Imipenem]	> 16	> 16	–	–	–	–	good β-lactamase inhibitors	broad spectrum of antibacterial activity	do not have good activity against MRSA
C[C@@H](O)[C@H]1C(=O)N2C(C(=O)O)=C(S[C@@H]3CN[C@H](C(=O)N(C)C)C3)[C@H](C)[C@H]12 [Meropenem]	> 16	> 16	–	–	–	–	good β-lactamase inhibitors	broad spectrum of antibacterial activity	do not have good activity against MRSA
C[C@]1(/C=C\C#N)[C@H](C(=O)[O-])N2C(=O)C[C@H]2S1(=O)=O.[Na+] [compound B, sodium-(Z)-(2S,3S ,R)-3-(2-cyanoethenyl)-3-methyl-4,4,7-trioxo-4-thia-1-aza-bicyclo[3.2.0]heptane-2-carboxylate, reference compound]	–	–	> 16	> 16	–	> 16	–	–	–
